{"source": "patent US20240156991A1", "about": "“STABLE FORMULATIONS OF INDOCYANINE GREEN” (PROVEPHARM LIFE SOLUTIONS, priority 2021, published 2024)", "origin": "cited, not measured here", "data": [{"smiles": "CC1(C)C(/C=C/C=C/C=C/C=C2\\N(CCCCS(=O)(=O)O)c3ccc4ccccc4c3C2(C)C)=[N+](CCCCS(=O)(=O)O)c2ccc3ccccc3c21", "note": "[ICG, Indocyanine green]", "values": [{"measurement": "reduction of absorbance at spectral peak", "setting": "after 10 hours of storage in water and direct light", "result": 10, "unit": "%"}, {"measurement": "fluorescence intensity lost", "setting": "stored at 4° C. in the dark, three days", "result": 20, "unit": "%"}]}]}
